Results on seven compounds are retold here after paper PMC8289861 (Scientific Reports, 2021).

Data set [1] has as its system Caco-2 cells.
For data set [2], the system named is Caco-2 cells. The following applies: cited from earlier work.
The subject of data set [3] is colon-derived human cells (NCM460 and HT-29MTX). The following applies: cited from earlier work.
The conditions of data set [4]: cited from earlier work.
On the set-up of data set [5]: method as in PMID 25283090. The following applies: in vivo studies; cited from earlier work.
The conditions of data set [6]: cited from earlier work. This is another data set of the same source.

Turning to `O=[As]O[As]=O` (stereo not shown) [As, arsenic oxide (As III)], the “decrease in the permeability as measured by Papp” value (from here on “decrease in the permeability”) in the data set with Caco-2 cells [1] turned out to be 7.5%. Also, the results for the “decrease of Papp values” (in the data set with Caco-2 cells [1]; in data set [3]) were 7.5% and 63%, respectively. Also, in the data set with Caco-2 cells [2] (at 2 h, concentration 67 μM), the Papp is given as 4.6 ± 0.3 × 10^–6 cm/s.
Consider `[CH3][Hg]` [CH3Hg], for which the “decrease in the cellular accumulation” value with Caco-2 cells [2] is “up to 55%”.
As to `CC(=O)[O-].CC(=O)[O-].[Cd+2]` [Cd, cadmium acetate], in the data set with Caco-2 cells [1], the “decrease in the permeability” value stood at 6.3% and the “decrease of Papp values” is listed as 6.3%. Besides, the “Cd accumulated in the Caco-2 cells” value with Caco-2 cells [2] (Caco-2) is on record as 6-12%. Further, in the data set on Caco-2 cells [2], the “lag time during which transport into the basolateral compartment was undetectable” value is given as “about 60 min” and the “reduction of ML in the basolateral chamber” value is 90%.
Take `[Cl][Cd][Cl]` [CdCl2]: the “Cd taken up (retained in the cells and transferred through cells) by Caco-2 cells” value in the data set on Caco-2 cells [2] (Caco-2) was 25%.
For `O=S(=O)(O)CC(S)CS` (stereo not shown) [DMPS, 2,3-dimercapto-1-propanesulfonic acid], the “Properties: water solubility” value in data set [4] is on record as “C3H8O3S3 M.wt; 188.289g/mol Water soluble”.
On to `[Cl][Hg][Cl]` [Hg, mercuric chloride], for which, in the data set on Caco-2 cells [1], the “decrease in the permeability” value turned out to be 8.2% and the “decrease of Papp values” is 7.9%. Further, the absorption in vivo in data set [5] was less than 15%. Besides, in the data set on Caco-2 cells [2], the cell retention was 49–69%, the cellular accumulation is given as 21–51%, the “transport to the basal compartment” value was 3–14% and the “transport to the basolateral side” value was 9–20%.
In the case of `CC(=O)[O-].CC(=O)[O-].[Pb+2]` [Pb, lead acetate], in the data set on Caco-2 cells [1], the “decrease in the permeability” value came to 7.9% and the “decrease of Papp values” was found to be 8.2%. For the same compound, the “Pb absorbed (associated and transported by Caco-2 cells)” value with Caco-2 cells [2] (Caco-2) is 30%. Also, in the data set on Caco-2 cells [2], the “Pb moved through the single layer” value is on record as 3%, the “Pb retained by the cells” value is recorded as “approximately 27%” and the “reduction of ML in the basolateral chamber” value was 50%. Moreover, the absolute bioavailability in data set [6] (estimated from Pb concentration in blood) is listed as 2.7%. For the same compound, in data set [6] (kidney), the “fish meal Pb found in kidney” value is 1.4%. In addition, in data set [6] (liver), the “fish meal Pb found in liver” value was 0.9%.
